Laboratory results from patent US10311582B2, “Image processing apparatus and method for evaluating objects in an image” (Sony Corporation, priority 2010, dated 2019).

Tested on: cultured cardiomyocytes
Assay: Pulsations of cultured cardiomyocytes before and after drug administration, by motion detection on moving images (drug evaluation apparatus)
Type: cell-based
Settings: for interval / timing of the pulsations (peak interval, rhythm of the pulsations): before vs after drug administration (after a predetermined time elapses), predetermined part of the observation region
Protocol: FIG. 24 is a block diagram illustrating a main configuration example of a drug evaluation apparatus. The drug evaluation apparatus 1300 illustrated in FIG. 24 is an apparatus that evaluates the impact (effects, side effects, and the like) of a drug using the motions of the cultured cardiomyocytes 500 to which the drug is administered.
The imaging unit 1101 images the cultured cardiomyocytes 500 before drug administration and after drug administration.
More specifically, the evaluation index data generating unit 1303 performs, for example, between frame images of the evaluation object image data which are the moving images of the cultured cardiomyocytes 500, motion detection (generation of motion vectors) of the cultured cardiomyocytes 500 for each of the blocks which are partial regions into which the entire region of the frame image is divided. That is, the evaluation index data generating unit 1303 performs the motion detection of each of the blocks for a predetermined duration (for a predetermined number of frames). This duration may be a time of the moving images imaged by the imaging unit 1101 or may be shorter than the time.
The evaluation index data generating unit 1303 further obtains a motion amount (the length of the motion vector) of each of the generated motion vectors. That is, the evaluation index data generating unit 1303 generates the motion amounts of each of the frames of each of the blocks for a predetermined duration.
When the motion amounts of the frames of a certain block obtained by the evaluation index data generating unit 1303 are arranged in time series, for example, the graph shown in FIG. 25 is obtained. FIG. 25 is a diagram showing a form of a change in the motion amount of a certain block with respect to time obtained by the evaluation index data generating unit 1303, that is, an example of a form of the pulsations of cells.
In the graph of FIG. 25, the horizontal axis represents the elapsed time (the number of frames), and the vertical axis represents the motion amount (pixels/frame). A curve 1311 (before) represents the pulsations of the cultured cardiomyocytes 500 before drug administration, and a curve 1312 (after) represents the pulsations of the cultured cardiomyocytes 500 after drug administration. In addition, in the graph of FIG. 25, a waveform of a single pulsation (a contraction and a relaxation) is shown.
The pulsations of cardiomyocytes include contractions and relaxations, and in the curve 1311 and the curve 1312, the crest formed on the left means a “contraction” operation, and the crest formed on the right means a “relaxation” operation. A point P1-1 represents the peak of the contraction of the curve 1311 (before), and a point P1-2 represents the peak of the relaxation of the curve 1311 (before). A point P2-1 represents the peak of the contraction of the curve […] (after), and a point P2-2 represents the peak of the relaxation of the curve 1312 (after).
FIG. 31 is a diagram showing an example of forms of pulsations before and after drug administration. All the 8 graphs shown in FIG. 31 are observation results of forms (changes in the motion amount absolute value with respect to time) of pulsations of a predetermined part in an observation region of the cultured cardiomyocytes 500. The horizontal axis represents the time (sec), and the vertical axis represents the motion amount absolute value (pixcel/frame) between frames. That is, the amplitudes shown in each of the graphs represents the pulsations of the cultured cardiomyocytes 500.
The graphs on the left of FIG. 31 represent forms of the pulsations before drug administration, and the graphs on the right represent forms of the pulsations after drug administration (after a predetermined time elapses after the administration).
In addition, FIG. 32 is a diagram showing an example of forms of variations of the pulsations before and after drug administration. […]

[1] = FIG. 31, before vs after drug administration
[2] = FIG. 32, overlapped pulsations after drug administration

Row | Compound | motion amount absolute value at the peaks [1] | waveform of the relaxation (the width of the pulsation) [1] | interval / timing of the pulsations (peak interval, rhythm of the pulsations) (FIG. 31) | variations of the height of the peak in the waveform of the contraction [2] | variations of the waveform of the relaxation (magnitude, time and number of appearance of the peak, width (QT elongation)) [2] | variations of the pulsations (overlapped waveforms of repeated pulsations) (FIG. 32, before vs after drug administration)
1 | CC(C)NCC(O)c1ccc(NS(C)(=O)=O)cc1 (racemic) [DL-sotalol] | becomes unstable (has variations) | changes (becomes unstable) | the timing of the pulsation becomes unstable | also has significant variations | has significant variations | –
2 | CC1(C)[C@@H](O)CC[C@]2(C)[C@H]3C(=O)C=C4[C@@H]5C[C@@](C)(C(=O)O)CC[C@]5(C)CC[C@@]4(C)[C@]3(C)CC[C@@H]12 [18-β-glycyrrhetinic acid] | become unstable (have variations) | – | become unstable (have variations) | has significant variations | – | –
3 | CC(=O)Oc1ccccc1C(=O)O [aspirin, acetylsalicylic acid] | – | – | does not have a significant impact | – | – | do not have significant variations
